Assay [1] addresses Protein kinase C theta type (Homo sapiens, UniProt Q04759). The experiment in a line: Navigating the Kinome. Panel member name: PRKCQ. The class given is functional.
Assay [2] addresses Protein kinase C delta type (Homo sapiens, UniProt Q05655). It is filed as functional.
In assay [3] the target is Serine/threonine-protein kinase PLK4 (Homo sapiens, UniProt O00444). It is filed as functional.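 Also: PLK4 measured as one member of a kinome-wide kinase profiling panel.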
In assay [4] the target is Serine/threonine-protein kinase D2 (Homo sapiens, UniProt Q9BZL6). It is filed as functional.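 Also: measured against PRKD2 as one member of a kinome-wide kinase profiling panel.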
In assay [5] the target is Ribosomal protein S6 kinase beta-1 (Homo sapiens, UniProt P23443). The class given is functional.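 Also: measured as one member of a kinome-wide profiling panel.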
Ribosomal protein S6 kinase beta-1, sequence (P23443 whole entry): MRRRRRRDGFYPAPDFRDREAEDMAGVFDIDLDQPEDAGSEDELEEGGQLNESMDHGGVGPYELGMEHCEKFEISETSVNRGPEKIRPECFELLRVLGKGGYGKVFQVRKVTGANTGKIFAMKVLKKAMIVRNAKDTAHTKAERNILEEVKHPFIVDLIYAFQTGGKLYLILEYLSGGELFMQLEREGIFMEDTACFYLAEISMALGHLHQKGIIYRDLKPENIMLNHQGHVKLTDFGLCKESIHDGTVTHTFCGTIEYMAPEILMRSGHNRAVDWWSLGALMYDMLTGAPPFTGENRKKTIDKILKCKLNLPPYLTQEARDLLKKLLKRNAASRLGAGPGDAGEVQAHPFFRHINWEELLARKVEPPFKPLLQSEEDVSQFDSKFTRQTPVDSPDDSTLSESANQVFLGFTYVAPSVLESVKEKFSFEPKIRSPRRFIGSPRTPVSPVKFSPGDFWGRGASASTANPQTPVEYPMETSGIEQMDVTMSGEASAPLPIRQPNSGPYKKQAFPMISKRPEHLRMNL
The target of assay [6] is Calcium/calmodulin-dependent protein kinase type II subunit gamma (Homo sapiens, UniProt Q13555). The class given is functional.
Assay [7] has as its target Serine/threonine-protein kinase 17A (Homo sapiens, UniProt Q9UEE5). The class given is functional.
The target in another assay is Activin receptor type-1 (Homo sapiens, UniProt Q04771). Description: Navigating the Kinome. Panel member name: ACVR1. It is filed as functional.
Activin receptor type-1, sequence (Q04771 whole entry): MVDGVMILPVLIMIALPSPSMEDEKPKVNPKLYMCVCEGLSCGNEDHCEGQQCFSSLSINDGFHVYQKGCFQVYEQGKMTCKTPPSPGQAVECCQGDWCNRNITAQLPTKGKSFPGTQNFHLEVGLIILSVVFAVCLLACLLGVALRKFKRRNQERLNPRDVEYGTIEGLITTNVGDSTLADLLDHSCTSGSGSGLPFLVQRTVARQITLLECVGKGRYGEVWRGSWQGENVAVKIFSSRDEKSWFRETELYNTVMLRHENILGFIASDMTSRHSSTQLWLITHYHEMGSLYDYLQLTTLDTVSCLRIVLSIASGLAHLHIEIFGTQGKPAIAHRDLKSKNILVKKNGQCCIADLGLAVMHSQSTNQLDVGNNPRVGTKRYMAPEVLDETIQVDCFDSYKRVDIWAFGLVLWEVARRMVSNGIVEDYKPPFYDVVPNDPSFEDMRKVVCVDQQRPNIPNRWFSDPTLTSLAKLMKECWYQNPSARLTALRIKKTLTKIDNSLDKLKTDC
A further assay concerns the target SRSF protein kinase 1 (Homo sapiens, UniProt Q96SB4). The class given is functional.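 Also: measured as one member of a kinome-wide kinase profiling panel.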
For assay [8], the target named is Calcium/calmodulin-dependent protein kinase type II subunit delta (Homo sapiens, UniProt Q13557). The class given is functional.
The target of assay [9] is Ribosomal protein S6 kinase alpha-5 (Homo sapiens, UniProt O75582). The class given is functional.
Assay [10] deals with Mitogen-activated protein kinase 9 (Homo sapiens, UniProt P45984). The class given is functional.
Assay [11] concerns the target Serine/threonine-protein kinase TAO1 (Homo sapiens, UniProt Q7L7X3). It is filed as functional.
Assay [12] addresses Tyrosine-protein kinase Blk (Homo sapiens, UniProt P51451). It is filed as functional.
For assay [13], the target named is Testis-specific serine/threonine-protein kinase 1 (Homo sapiens, UniProt Q9BXA7). It is filed as functional.
Testis-specific serine/threonine-protein kinase 1, sequence (Q9BXA7 whole entry): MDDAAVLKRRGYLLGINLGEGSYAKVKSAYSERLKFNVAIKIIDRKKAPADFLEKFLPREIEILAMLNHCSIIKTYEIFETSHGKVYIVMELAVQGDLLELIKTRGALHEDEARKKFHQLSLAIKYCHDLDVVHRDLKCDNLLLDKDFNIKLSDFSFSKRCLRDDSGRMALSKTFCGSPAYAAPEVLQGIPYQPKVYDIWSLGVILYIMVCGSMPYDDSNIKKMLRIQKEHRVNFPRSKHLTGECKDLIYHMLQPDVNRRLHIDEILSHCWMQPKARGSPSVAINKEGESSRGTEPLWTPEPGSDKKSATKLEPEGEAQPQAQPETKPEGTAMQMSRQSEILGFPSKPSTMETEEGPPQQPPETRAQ
The target of assay [14] is Proto-oncogene tyrosine-protein kinase Src (Homo sapiens, UniProt P12931). The class given is functional.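 Also: SRC entry within a kinome-wide kinase profiling panel.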
Assay [15] addresses Dual specificity tyrosine-phosphorylation-regulated kinase 3 (Homo sapiens, UniProt O43781). It is filed as functional.
Assay [16] concerns the target Serine/threonine-protein kinase Chk1 (Homo sapiens, UniProt O14757). The class given is functional.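 Also: measured as one member of a kinome-wide kinase profiling panel.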
Assay [17] addresses G protein-coupled receptor kinase 5 (Homo sapiens, UniProt P34947). Description: Navigating the Kinome. Panel member name: GPRK5. The class given is functional.
The target of assay [18] is Protein kinase C iota type (Homo sapiens, UniProt P41743). The class given is functional.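 Also: measured within a kinome-wide kinase panel, PRKCI as panel member.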
The target in assay [19] is Interleukin-1 receptor-associated kinase 4 (Homo sapiens, UniProt Q9NWZ3). It is filed as functional.
The target of assay [20] is Vascular endothelial growth factor receptor 3 (Homo sapiens, UniProt P35916). The class given is functional.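 Also: value from a kinome-wide profiling panel, with FLT4 as the panel member.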
Vascular endothelial growth factor receptor 3, sequence (P35916 whole entry): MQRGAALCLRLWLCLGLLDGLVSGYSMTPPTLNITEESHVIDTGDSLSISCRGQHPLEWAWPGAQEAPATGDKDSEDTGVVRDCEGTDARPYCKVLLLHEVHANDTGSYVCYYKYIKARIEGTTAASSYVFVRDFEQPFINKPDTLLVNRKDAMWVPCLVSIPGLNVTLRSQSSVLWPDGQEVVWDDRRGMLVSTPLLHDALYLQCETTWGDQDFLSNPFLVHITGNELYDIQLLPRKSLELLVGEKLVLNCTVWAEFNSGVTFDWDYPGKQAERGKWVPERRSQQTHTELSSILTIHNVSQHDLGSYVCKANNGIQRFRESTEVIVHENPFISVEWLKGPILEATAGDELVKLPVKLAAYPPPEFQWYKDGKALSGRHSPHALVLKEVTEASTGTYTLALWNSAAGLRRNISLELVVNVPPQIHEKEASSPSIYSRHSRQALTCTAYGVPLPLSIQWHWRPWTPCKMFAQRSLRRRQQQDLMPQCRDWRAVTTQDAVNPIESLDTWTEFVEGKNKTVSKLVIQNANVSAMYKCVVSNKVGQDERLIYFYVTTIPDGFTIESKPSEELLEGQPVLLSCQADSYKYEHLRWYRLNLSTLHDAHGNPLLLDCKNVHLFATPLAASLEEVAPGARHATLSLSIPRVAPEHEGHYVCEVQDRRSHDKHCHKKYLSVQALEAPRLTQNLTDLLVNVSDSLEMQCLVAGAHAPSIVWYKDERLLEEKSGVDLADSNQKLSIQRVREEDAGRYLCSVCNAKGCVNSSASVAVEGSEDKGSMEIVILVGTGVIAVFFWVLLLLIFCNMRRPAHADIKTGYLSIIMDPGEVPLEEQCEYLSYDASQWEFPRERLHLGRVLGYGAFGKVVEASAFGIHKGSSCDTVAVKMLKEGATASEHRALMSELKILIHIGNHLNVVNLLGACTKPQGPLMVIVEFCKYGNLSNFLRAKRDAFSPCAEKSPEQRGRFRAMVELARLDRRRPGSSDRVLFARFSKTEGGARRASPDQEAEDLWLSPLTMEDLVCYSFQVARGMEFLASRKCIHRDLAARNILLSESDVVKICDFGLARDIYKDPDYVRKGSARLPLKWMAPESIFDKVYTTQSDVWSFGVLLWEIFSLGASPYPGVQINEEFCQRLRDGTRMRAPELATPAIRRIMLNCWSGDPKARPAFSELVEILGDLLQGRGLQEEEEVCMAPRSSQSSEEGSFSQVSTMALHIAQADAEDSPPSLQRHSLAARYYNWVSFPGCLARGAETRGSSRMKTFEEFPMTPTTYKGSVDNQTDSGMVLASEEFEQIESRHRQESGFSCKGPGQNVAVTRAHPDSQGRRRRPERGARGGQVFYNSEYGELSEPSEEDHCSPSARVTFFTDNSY
In assay [21] the target is Cyclin-dependent kinase 1 (Homo sapiens, UniProt P06493). It is filed as functional.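 Also: Kinome-wide panel profiling, with the target listed as panel member CDC2.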
Cyclin-dependent kinase 1, sequence (P06493 whole entry): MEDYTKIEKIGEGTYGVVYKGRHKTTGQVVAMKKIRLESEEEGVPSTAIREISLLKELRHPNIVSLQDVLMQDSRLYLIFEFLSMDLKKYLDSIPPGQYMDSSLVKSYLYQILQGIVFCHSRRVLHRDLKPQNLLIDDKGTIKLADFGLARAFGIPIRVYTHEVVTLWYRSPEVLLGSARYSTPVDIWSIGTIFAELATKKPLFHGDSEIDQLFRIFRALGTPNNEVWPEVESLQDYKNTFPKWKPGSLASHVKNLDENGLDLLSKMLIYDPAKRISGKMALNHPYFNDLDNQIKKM
For assay [22], the target named is Vascular endothelial growth factor receptor 1 (Homo sapiens, UniProt P17948). The class given is functional.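 Also: measured within a kinome-wide profiling panel, FLT1 as the panel member.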
The target in assay [23] is Dual specificity mitogen-activated protein kinase kinase 2 (Homo sapiens, UniProt P36507). The experiment in a line: Navigating the Kinome. Panel member name: MAP2K2. The class given is functional.
Dual specificity mitogen-activated protein kinase kinase 2, sequence (P36507 whole entry): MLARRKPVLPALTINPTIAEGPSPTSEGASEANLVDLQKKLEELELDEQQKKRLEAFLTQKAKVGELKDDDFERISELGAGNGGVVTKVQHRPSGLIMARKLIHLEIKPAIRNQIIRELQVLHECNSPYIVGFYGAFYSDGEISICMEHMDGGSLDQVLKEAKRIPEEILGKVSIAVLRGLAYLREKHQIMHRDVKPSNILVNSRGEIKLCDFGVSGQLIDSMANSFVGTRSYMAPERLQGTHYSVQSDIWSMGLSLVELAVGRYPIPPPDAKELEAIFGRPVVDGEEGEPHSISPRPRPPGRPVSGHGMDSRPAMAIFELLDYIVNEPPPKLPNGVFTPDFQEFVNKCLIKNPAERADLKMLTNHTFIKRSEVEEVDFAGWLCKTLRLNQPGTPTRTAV
Assay [24] addresses Calcium/calmodulin-dependent protein kinase type II subunit alpha (Homo sapiens, UniProt Q9UQM7). Description: Navigating the Kinome. Panel member name: CAMK2A. It is filed as functional.
Assay [25] deals with Tyrosine-protein kinase FRK (Homo sapiens, UniProt P42685). It is filed as functional.
Another assay relates to HEK293. The experiment in a line: NOD2 signaling inhibitors in MDP-stimulated cells, cell-based, uHTS, luminescence (AID 2001). It is filed as functional. The conditions noted are these: Homo sapiens.
Assay [26] is described as follows: Shn3 3'UTR reporter inhibitors, dose response, cell-based, Clone20 osteoblasts, firefly luciferase, cherry-picked (AID 624132).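 Also: firefly luciferase luminescence from reporter carrying the Shn3 3'UTR in osteoblasts.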 It is filed as functional.
Assay [27] is described as follows: control 3'UTR Renilla luciferase suppression, dose response, counter-screen for Shn3 inhibitor project, cell-based, Clone20-Shn3RL, cherry-picked (AID 624133). The class given is functional. Background: Counterscreens check selectivity or assay interference.
Assay [28] can be described thus: C. albicans growth with fluconazole, confirmation, fluorescence, retest (AID 2467). It is filed as functional, cell-based.
Assay [29] is described as follows: SNU-C1 cell viability reduction, dose response, CellTiter-Glo luminescence (AID 1117323). It is filed as functional, cell-based. A general note: Cellular ATP, detected with luciferase, serves as a proxy for viable cell number.
A short description of assay [30]: HeLa 4N DNA content increase, dose response, cell-based, IC50 (AID 1117351). It is filed as functional.
Assay [31] can be described thus: Glucagon-like peptide 1 release potency, NCI-H716 cell line, dose-response, half-maximal inhibitory concentration (AID 1117344). It is filed as functional, cell-based.

By Ki is commonly meant a measure of affinity in units of concentration, obtained from inhibition or displacement. One may read the IC50 as the concentration that gives 50% inhibition. The AC50 is the concentration at which the activity in the assay is half-maximal. For orientation: EC50 means the concentration that produces a half-maximal response.

The source made the active and inactive calls.

SRSF protein kinase 1, sequence (Q96SB4 whole entry): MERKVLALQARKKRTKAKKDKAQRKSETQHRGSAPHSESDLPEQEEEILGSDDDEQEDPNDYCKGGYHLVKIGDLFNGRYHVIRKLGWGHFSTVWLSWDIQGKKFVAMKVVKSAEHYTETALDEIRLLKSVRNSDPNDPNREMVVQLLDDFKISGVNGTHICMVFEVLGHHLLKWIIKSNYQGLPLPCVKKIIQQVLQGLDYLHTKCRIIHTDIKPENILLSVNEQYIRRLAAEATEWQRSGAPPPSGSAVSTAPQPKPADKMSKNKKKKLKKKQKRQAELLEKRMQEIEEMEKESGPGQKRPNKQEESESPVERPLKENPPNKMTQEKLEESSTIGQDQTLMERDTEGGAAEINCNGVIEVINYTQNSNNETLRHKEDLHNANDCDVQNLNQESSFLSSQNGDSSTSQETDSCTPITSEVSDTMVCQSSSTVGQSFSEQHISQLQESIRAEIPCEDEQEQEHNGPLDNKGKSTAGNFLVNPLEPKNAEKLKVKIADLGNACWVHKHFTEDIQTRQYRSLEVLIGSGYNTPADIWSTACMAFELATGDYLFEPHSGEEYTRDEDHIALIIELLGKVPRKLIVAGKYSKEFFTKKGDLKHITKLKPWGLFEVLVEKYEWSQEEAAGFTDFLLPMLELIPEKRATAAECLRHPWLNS
Serine/threonine-protein kinase 17A, sequence (Q9UEE5 whole entry): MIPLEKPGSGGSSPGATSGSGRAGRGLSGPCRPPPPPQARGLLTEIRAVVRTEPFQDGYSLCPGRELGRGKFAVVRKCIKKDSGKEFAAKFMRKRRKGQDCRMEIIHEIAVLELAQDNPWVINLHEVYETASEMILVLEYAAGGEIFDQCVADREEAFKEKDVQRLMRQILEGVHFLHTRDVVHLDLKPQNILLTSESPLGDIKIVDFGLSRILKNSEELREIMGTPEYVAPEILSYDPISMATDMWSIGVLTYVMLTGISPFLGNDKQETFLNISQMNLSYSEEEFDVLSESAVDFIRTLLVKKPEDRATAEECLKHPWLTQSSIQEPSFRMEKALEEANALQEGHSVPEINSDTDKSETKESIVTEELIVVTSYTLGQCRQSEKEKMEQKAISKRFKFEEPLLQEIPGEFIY
Serine/threonine-protein kinase Chk1, sequence (O14757 whole entry): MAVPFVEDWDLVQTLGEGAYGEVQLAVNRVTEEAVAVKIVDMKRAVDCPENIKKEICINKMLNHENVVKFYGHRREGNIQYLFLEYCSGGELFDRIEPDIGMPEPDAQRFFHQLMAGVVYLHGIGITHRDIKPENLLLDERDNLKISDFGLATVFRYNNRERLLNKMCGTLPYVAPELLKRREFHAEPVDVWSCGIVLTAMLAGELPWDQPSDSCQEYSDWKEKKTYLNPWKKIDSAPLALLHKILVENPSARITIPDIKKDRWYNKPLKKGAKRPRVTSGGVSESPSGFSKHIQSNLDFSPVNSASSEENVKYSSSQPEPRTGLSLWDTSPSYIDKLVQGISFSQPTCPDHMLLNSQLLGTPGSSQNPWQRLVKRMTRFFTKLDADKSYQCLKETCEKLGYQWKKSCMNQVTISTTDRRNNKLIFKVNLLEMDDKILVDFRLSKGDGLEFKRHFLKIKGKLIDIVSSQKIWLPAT

Take `N#Cc1ccc2[nH]c(O)c(-c3ccc(CN4CCOCC4)cn3)c2c1` [AZD-1080]: the Ki in assay [1] was > 2.51 µM (inactive); in [2], > 7.94 µM (inactive); in assay [3] it was > 3.98 µM (inactive); in assay [4], 7.94 µM (active); in assay [5], > 6.31 µM (inactive); in [6], 5.01 µM (active). The Ki is 0.501 µM (active) in assay [7]; > 3.98 µM (inactive) at Activin receptor type-1; > 7.94 µM (inactive) at SRSF protein kinase 1; > 6.31 µM (inactive) in [8]; > 2 µM (inactive) in assay [9]; > 3.98 µM (inactive) in [10]. In addition, the Ki in assay [11] is > 7.94 µM (inactive); in assay [12], > 1.58 µM (inactive); in [13] it was > 1.58 µM (inactive); in assay [14], > 2 µM (inactive); in assay [15], 1 µM (active); in assay [16] it was > 7.94 µM (inactive). Besides, the Ki is > 3.98 µM (inactive) in assay [17]; > 5.01 µM (inactive) in assay [18]; > 10 µM (inactive) in [19]; > 6.31 µM (inactive) in assay [20]; 2 µM (active) in assay [21]; > 2.51 µM (inactive) in assay [22]. The figures for the Ki in assay [23], in [24] and in [25] were > 3.98 µM (inactive), 6.31 µM (active) and > 2.51 µM (inactive), respectively.
Regarding `O=C1C=C(N2CCOCC2)c2ccccc2C1=O`, the IC50 in the assay on HEK293 is 10.3 µM (inactive). In addition, the AC50 is 7.16 µM (active) in assay [26] and 8.28 µM (active) in assay [27].
Regarding `CCc1oc2ccccc2c1C(=O)c1cc(Br)c(O)c(Br)c1` [BENZBROMARONE], the EC50 in [28] is 0.059 µM (active). The half-inhibitory concentration (IC50) was 0.105 µM (active) in assay [29], > 10 µM (inactive) in assay [30] and > 40 µM (inactive) in assay [31].

(Values after ChEMBL document CHEMBL1201862, “PubChem BioAssay data set” (2004).)
